{
  "source": "paper PMC9571303",
  "about": "“Development of Clinical Weekly-Dose Teriparatide Acetate Encapsulated Dissolving Microneedle Patch for Efficient Treatment of Osteoporosis” (Polymers, 2022)",
  "key": {"[1]": {"assay": "In vivo pharmacokinetic analysis after TA delivery", "parameters": "species or system Sprague Dawley rats", "conditions": "SD rats; for half-life: male, Sprague Dawley, rat", "procedure": "Six-week-old male Sprague Dawley rats (SD rats) were purchased from Young Bio Inc. (Seongnam, Korea) and allowed seven days for acclimation. Three groups of SD rats were used for the pharmacokinetic study. All the dorsal regions of the SD rats were shaved for application of the TA-DMN patches. Group 1 was administered a subcutaneous injection of a formulation containing 60.6 μg of TA into the central part of the back using a 27 G hypodermic needle (Becton Dickinson, Franklin Lakes, NJ, USA), and served as the positive control. Group 2 received one TA-DMN patch containing 61.4 ± 1.3 µg of TA. Group 3 received two TA-DMN patches containing 122.8 ± 2.6 µg of TA. A home-made shooting device was used to apply the TA-DMN patches on the backs of the SD rats, and a dressing (Tegaderm; 3M Health Care, St. Paul, MN, USA) was used to cover the patches. In addition, a self-adherent bandage wrap (Coban; 3M Health Care, St. Paul, MN, USA) was used to secure the patches.\nAt 0, 0.25, 0.5, 0.75, 1, 2, 3.5, 4, 5, 6, and 24 h after subcutaneous administration of TA in group 1, 100 μL of blood was taken into a Microvette (SARSTEDT; Nümbrecht, Germany) from the saphenous vein, which was exposed after a minor incision of the tail by a surgical blade. Blood samples were collected in the same manner at 0, 0.5, 1, 2, 3.5, 4, 5, 6, and 24 h after TA-DMN patch application in group 2, and at 0, 0.5, 1, 1.5, 3, 4, 5, 6, and 24 h after TA-DMN patch application in group 3. The collected blood was left at room temperature for 30 min and centrifuged using a microcentrifuge (Hanil, Dajeon, Korea) at 1000× g for 10 min to separate the plasma. All separated plasma samples were transferred to 1.5-mL Eppendorf tubes and stored at −70 °C. TA concentrations in rat plasma were determined via enzyme-linked immunosorbent assay (ELISA) using a TA pharmacokinetics ELISA kit (SB-07-043; Somru Bioscience, Charlottetown, PE, Canada) and a microplate reader (Perkin Elmer, Waltham, MA, USA). Based on the determined TA concentrations in rat plasma, the areas under the concentration curve (AUC) were computed using the trapezoid area calculation method, and BA was evaluated to analyze the pharmacokinetic profiles."}, "[2]": {"assay": "TA activity after drying in CL-mimic conditions (RP-HPLC)", "format": "physicochemical", "conditions": "droplets dried at 4 °C under vacuum (CL-mimic), reconstituted in PBS, RP-HPLC C18, UV, mean ± SD, n = 15", "procedure": "TA activity was assessed via reverse-phase high-performance liquid chromatography (RP-HPLC) under CL-mimic conditions, in which TA undergoes a drying process from droplets of matric polymer with TA. TA polymer solutions were dispensed as droplets on a polyurethane film (SLA, Gumi, Korea) using a robotic dispenser (ML-5000X; Musashi Engineering, Inc., Tokyo, Japan) and dried at 4 °C under vacuum to mimic the conditions of the CL. Dried droplets were then dissolved in phosphate-buffered saline (PBS; Life Technologies, Carlsbad, CA, USA) for reconstitution and analyzed via RP-HPLC using a separation module (Waters e2695; Waters Corp., Milford, MA, USA) and a dual λ absorbance detector (Waters 2487′ Waters Corp., Milford, MA, USA). A C18 column (COSMOSIL; 5 μm, 150 × 4.6 mm) was used for HPLC. Mobile phase A was prepared as 10% acetonitrile (Sigma-Aldrich, St. Louis, MO, USA) and 90% 0.2 M sodium sulfate (Sigma-Aldrich, St. Louis, MO, USA) and phase B was prepared as 50% acetonitrile and 50% of 0.2 M sodium sulfate with a flow rate of 1.3 mL/min and detection wavelength of […]."}},
  "note": "Values joined by “and” are separate entries in the source; they are usually repeats but may differ in a detail not shown here. Identical values can stand only once. Like-named read-outs stand apart in the source and are kept apart here.",
  "data": [
    {"smiles": "CC[C@H](C)[C@H](NC(=O)[C@H](CCC(=O)O)NC(=O)[C@H](CO)NC(=O)[C@@H](NC(=O)[C@@H](N)CO)C(C)C)C(=O)N[C@@H](CCC(N)=O)C(=O)N[C@@H](CC(C)C)C(=O)N[C@@H](CCSC)C(=O)N[C@@H](Cc1cnc[nH]1)C(=O)N[C@@H](CC(N)=O)C(=O)N[C@@H](CC(C)C)C(=O)NCC(=O)N[C@@H](CCCCN)C(=O)N[C@@H](Cc1cnc[nH]1)C(=O)N[C@@H](CC(C)C)C(=O)N[C@@H](CC(N)=O)C(=O)N[C@@H](CO)C(=O)N[C@@H](CCSC)C(=O)N[C@@H](CCC(=O)O)C(=O)N[C@@H](CCCN=C(N)N)C(=O)N[C@H](C(=O)N[C@@H](CCC(=O)O)C(=O)N[C@@H](Cc1c[nH]c2ccccc12)C(=O)N[C@@H](CC(C)C)C(=O)N[C@@H](CCCN=C(N)N)C(=O)N[C@@H](CCCCN)C(=O)N[C@@H](CCCCN)C(=O)N[C@@H](CC(C)C)C(=O)N[C@@H](CCC(N)=O)C(=O)N[C@@H](CC(=O)O)C(=O)N[C@H](C(=O)N[C@@H](Cc1cnc[nH]1)C(=O)N[C@@H](CC(N)=O)C(=O)N[C@@H](Cc1ccccc1)C(=O)O)C(C)C)C(C)C", "note": "[TA, teriparatide acetate]", "values": [
      {"measurement": "Tmax", "setting": "[1]; Group 1: subcutaneous injection, 60.6 μg TA, plasma ELISA, n = 3", "result": 18, "unit": "min"},
      {"measurement": "BA", "setting": "[1]; Group 1: subcutaneous injection, 60.6 μg TA, positive control (reference), n = 3", "result": "100% and 100 ± 10.5%"},
      {"measurement": "half-life", "setting": "[1]; plasma, after all three TA administration methods (SC, one patch, two patches), read-out: half-life t½ of TA in plasma (converted)", "result": "~48", "unit": "min"},
      {"measurement": "half-life", "setting": "[1]; sc, Group 1: subcutaneous injection, 60.6 μg TA, plasma ELISA, n = 3, read-out: t1/2 (converted)", "result": 48, "unit": "min"},
      {"measurement": "TA activity after drying", "setting": "[2]; TA polymer solution (HA) with 10% trehalose", "result": "75.4 ± 8.3", "unit": "%"},
      {"measurement": "TA activity after drying", "setting": "[2]; TA polymer solution (HA) without trehalose", "result": "59.0 ± 3.6", "unit": "%"}
    ]}
  ]
}
